Source: patent US4237135A, “2-(4-Ethyl-1-piperazinyl)-4-phenylquinoline, process for preparation thereof, and composition thereof” (Dainippon Pharmaceutical Co., Ltd., priority 1978, dated 1980)

Key:
[1] = test system: mouse-killing behavior of olfactory bulb-ablated rats; assay: Suppressing effect on mouse-killing behavior in olfactory bulb-ablated rats; assay type: in vivo, male Wistar strain rats
Description: Pharmacological experiments have been done on the compound of the present invention, some known and novel analogous compounds and an antidepressant on the market, as mentioned below. In the experiments, ED50 was calculated by Litchfield-Wilcoxon method.
Male Wistar strain rats, weighing 240-260 g, which had developed mouse-killing behavior after ablation of the olfactory bulb according to the method of Z. P. Horovitz [Int. J. Neuropharmacol. 5, 405 (1966)], were used in groups of 15 animals each. Each test compound was given intraperitoneally to the rats in 6 different doses, and 1 hours later the rats were each tested as to whether they killed a mouse or not. ED50 was calculated for each compound.

[2] = test system: brain 3-methoxy-4-hydroxyphenylethylene glycol sulfate (MOPEG-SO4); assay: Effect on brain monoamine metabolites: MOPEG-SO4; assay type: in vivo, male Wistar strain rats; settings: 100 mg/kg p.o.; for Brain MOPEG-SO4, % of control: *P<0.01
Description: Each test compound was given orally to the rats in a dose of 100 mg/kg and, 1, 3 and 6 hours later the rats were sacrificed. […] The concentrations of the monoamine metabolites were calculated in terms of ng/g wet brain tissue and expressed as % of the concentrations of controls receiving saline.

[3] = test system: ptosis induced by tetrabenazine; assay: Anti-tetrabenazine activity: antagonistic effect on ptosis induced by tetrabenazine; assay type: in vivo, male STD-ddY strain mice; settings: Mus musculus, po; tetrabenazine 70 mg/kg i.p.; Table 2
Description: Pharmacological experiments have been done on the compound of the present invention, some known and novel analogous compounds and an antidepressant on the market, as mentioned below. In the experiments, ED50 was calculated by Litchfield-Wilcoxon method. Male STD-ddY strain mice, weighing 20-25 g, were used in groups of 10 mice each. […] Two hours after the tetrabenazine injection, the degree of eyelid closure (ptosis) was assessed on the basis of macroscopic scoring (0: no closure of the eyelid, 1: 1/4 closure, 2: 2/4 closure, 3: 3/4 closure and 4: complete closure), essentially according to the method of P. A. J. Janssen [Arzneim. Forsch. 15, 104 (1965)]. ED50 was calcuated for each compound.

With `CCN1CCN(c2cc(-c3ccccc3)c3ccccc3n2)CC1.Cl.Cl` [A, 2-(4-Ethyl-1-piperazinyl)-4-phenylquinoline dihydrochloride] the ED50 ([1]; Rattus norvegicus, ip, 1 hour after dosing, read-out: Suppressing effect on mouse-killing behavior of olfactory bulb-ablated rats, ED50) was 5 mg/kg, the “Suppression of mouse-killing behavior (in words)” value ([1]; versus imipramine, i.p.) was “as potent as imipramine” and the “Brain MOPEG-SO4 concentration / noradrenaline turnover (in words)” value [2] was “significant decrease in brain MOPEG-SO4 concentration”. For the same molecule, the “Brain MOPEG-SO4, % of control” value ([2]; 1 hour) was 82 % of control, the “Brain MOPEG-SO4, % of control” value ([2]; 3 hours) was 70 % of control and the “Brain MOPEG-SO4, % of control” value ([2]; 6 hours) was 63 % of control. For the same molecule, the ED50 [3] was 1.8 mg/kg.
